Source: patent publication US5508428A, “Spiro compound” (Daiichi Phamaceutical Co., Ltd., priority 1988, dated 1996)
≈ marks a conversion by molar mass, not a printed value.

What was measured:
Format in all cases: cell-based
E. coli, NIHJ = test: Antibacterial activity (MIC), E. coli NIHJ; details: Escherichia coli
Description: (§1) The antibacterial activity assays were performed by the method specified by Japan Society of Chemotherapy (Chemotherapy 29(1), 76 (1981). The table of antibacterial activity is followed by the reaction schemes for the synthesis of various spiro ring-containing cyclic amine derivatives, intermediate compounds for synthesis of quinolone rings and synthesis of various spiro compounds.

S. aureus, 209P = test: Antibacterial activity (MIC), S. aureus 209P; details: Staphylococcus aureus
Description: as §1

Str. pyogenes, G-36 = test: Antibacterial activity (MIC), Str. pyogenes G-36; details: Streptococcus pyogenes, G36, Str. pyogenes
Description: as §1

Ser. marcescens, 10100 = test: Antibacterial activity (MIC), Ser. marcescens 10100; details: Serratia marcescens, 10100, Ser. marcescens
Description: as §1

[1] = tested on: Ps. maltophilia, IID-1275; test: Antibacterial activity (MIC), Ps. maltophilia IID-1275; details: Stenotrophomonas maltophilia, IID1275, Ps. maltophilia
Description: as §1

[2] = tested on: Str. faecalis, ATCC-19433; test: Antibacterial activity (MIC), Str. faecalis ATCC-19433; details: Enterococcus faecalis, ATCC19433, Str. faecalis
Description: as §1

Pr. mirabillis, IF0-3849 = test: Antibacterial activity (MIC), Pr. mirabillis IF0-3849
Description: as §1

Ps. aeruginosa, 32121 = test: Antibacterial activity (MIC), Ps. aeruginosa 32121; details: Pseudomonas aeruginosa, 32121, Ps. aeruginosa
Description: as §1

S. flexneri, 2A 5503 = test: Antibacterial activity (MIC), S. flexneri 2A 5503; details: Shigella flexneri, 2A5503
Description: as §1

Ps. aeruginosa, 32104 = test: Antibacterial activity (MIC), Ps. aeruginosa 32104; details: Pseudomonas aeruginosa, 32104, Ps. aeruginosa
Description: as §1

Pr. vulgaris, 08601 = test: Antibacterial activity (MIC), Pr. vulgaris 08601; details: Proteus vulgaris
Description: as §1

S. epidermidis, 56500 = test: Antibacterial activity (MIC), S. epidermidis 56500; details: Staphylococcus epidermidis, 56500, S. epidermidis
Description: as §1

Row | SMILES | MIC (E. coli, NIHJ) | MIC (S. aureus, 209P) | MIC (Str. pyogenes, G-36) | MIC (Ser. marcescens, 10100) | MIC [1] | MIC [2] | MIC (Pr. mirabillis, IF0-3849) | MIC (Ps. aeruginosa, 32121) | MIC (S. flexneri, 2A 5503) | MIC (Ps. aeruginosa, 32104) | MIC (Pr. vulgaris, 08601) | MIC (S. epidermidis, 56500)
1 | NC1CN(c2cc3c(cc2F)c(=O)c(C(=O)O)cn3-c2ccc(F)cc2F)CC12CC2 (stereo not drawn) [Compound 34, 7-(7-amino-5-azaspiro[2.4]heptan-5-yl)-6-fluoro-1-(2.4-difluorophenyl)-1,4-dihydro-4-oxoquinoline-3-carboxylic acid] | ≤ 0.05 µg/mL | 0.1 µg/mL (≈ 0.233 µM) | 0.39 µg/mL (≈ 0.908 µM) | 0.39 µg/mL (≈ 0.908 µM) | 0.1 µg/mL (≈ 0.233 µM) | 0.78 µg/mL (≈ 1.82 µM) | 0.39 µg/mL (≈ 0.908 µM) | 0.2 µg/mL (≈ 0.466 µM) | ≤ 0.05 µg/mL | 0.39 µg/mL (≈ 0.908 µM) | 0.2 µg/mL (≈ 0.466 µM) | 0.2 µg/mL (≈ 0.466 µM)
2 | NC1CN(c2nc3c(cc2F)c(=O)c(C(=O)O)cn3C2CC2)CC12CC2 (stereo not drawn) [Compound 35, 7-(7-amino-5-azaspiro[2.4]heptan-5-yl)-1-cyclopropyl-6-fluoro-1,4-dihydro-4-oxo-1,8-naphthyridine-3-carboxylic acid] | ≤ 0.05 µg/mL | 0.1 µg/mL (≈ 0.279 µM) | 0.78 µg/mL (≈ 2.18 µM) | ≤ 0.05 µg/mL | ≤ 0.05 µg/mL | 0.39 µg/mL (≈ 1.09 µM) | 0.1 µg/mL (≈ 0.279 µM) | ≤ 0.05 µg/mL | ≤ 0.05 µg/mL | 0.1 µg/mL (≈ 0.279 µM) | ≤ 0.05 µg/mL | 0.2 µg/mL (≈ 0.558 µM)
3 | C[C@H]1COc2c(N3CC(N)C4(CC4)C3)c(F)cc3c(=O)c(C(=O)O)cn1c23 (stereo partly drawn) [Compound 36, 10-(7-Amino-5-azaspiro[2.4]heptan-5-yl)-9-fluoro-2,3-dihydro-3-(S)-methyl-7-oxo-7H-pyrido[1,2,3-de][1.4]-benzoxazine-6-carboxylic acid] | ≤ 0.05 µg/mL | 0.1 µg/mL (≈ 0.268 µM) | 0.39 µg/mL (≈ 1.04 µM) | 0.2 µg/mL (≈ 0.536 µM) | 0.39 µg/mL (≈ 1.04 µM) | 0.78 µg/mL (≈ 2.09 µM) | 0.1 µg/mL (≈ 0.268 µM) | 0.1 µg/mL (≈ 0.268 µM) | ≤ 0.05 µg/mL | 0.2 µg/mL (≈ 0.536 µM) | ≤ 0.05 µg/mL | 0.2 µg/mL (≈ 0.536 µM)
4 | O=C(O)c1cn(C2CC2)c2cc(N3CCNC4(CC4)C3)c(F)cc2c1=O [Compound 37, 1-Cyclopropyl-7-(4,7-diazaspiro[2.5]octan-7-yl)-6-fluoro-1,4-dihydro-4-oxoquinoline-3-carboxylic acid] | ≤ 0.05 µg/mL | 0.2 µg/mL (≈ 0.56 µM) | 0.78 µg/mL (≈ 2.18 µM) | 0.1 µg/mL (≈ 0.28 µM) | 0.39 µg/mL (≈ 1.09 µM) | 0.78 µg/mL (≈ 2.18 µM) | ≤ 0.05 µg/mL | 0.2 µg/mL (≈ 0.56 µM) | ≤ 0.05 µg/mL | 0.2 µg/mL (≈ 0.56 µM) | ≤ 0.05 µg/mL | 0.39 µg/mL (≈ 1.09 µM)
5 | O=C(O)c1cn(C2CC2)c2c(Cl)c(N3CC(O)C4(CC4)C3)c(F)cc2c1=O (stereo not drawn) [Compound 39, 7-(7-Hydroxy-5-azaspiro[2.4]heptan-5-yl)-8-chloro-1-cyclopropyl-6-fluoro-1,4-dihydro-4-oxoquinoline-3-carboxylic acid] | ≤ 0.05 µg/mL | ≤ 0.05 µg/mL | 0.39 µg/mL (≈ 0.993 µM) | 0.39 µg/mL (≈ 0.993 µM) | ≤ 0.05 µg/mL | 0.39 µg/mL (≈ 0.993 µM) | 0.2 µg/mL (≈ 0.509 µM) | 0.39 µg/mL (≈ 0.993 µM) | ≤ 0.05 µg/mL | 1.56 µg/mL (≈ 3.97 µM) | ≤ 0.05 µg/mL | ≤ 0.05 µg/mL
6 | CC(C)(C)n1cc(C(=O)O)c(=O)c2cc(F)c(N3CC(N)C4(CC4)C3)nc21 (stereo not drawn) [Compound 41b, 7-(7-Amino-5-azaspiro[2.4]heptan-5-yl)-1,4-dihydro-6-fluoro-1-(2-methyl-2-propyl)-4-oxo-1,8-naphthyridine-3-carboxylic acid] | ≤ 0.05 µg/mL | ≤ 0.05 µg/mL | 0.39 µg/mL (≈ 1.04 µM) | 0.1 µg/mL (≈ 0.267 µM) | 0.1 µg/mL (≈ 0.267 µM) | 0.2 µg/mL (≈ 0.534 µM) | 0.2 µg/mL (≈ 0.534 µM) | 0.1 µg/mL (≈ 0.267 µM) | ≤ 0.05 µg/mL | 0.2 µg/mL (≈ 0.534 µM) | 0.1 µg/mL (≈ 0.267 µM) | 0.1 µg/mL (≈ 0.267 µM)
7 | NC1CN(c2c(F)cc3c(=O)c(C(=O)O)cn(C4CC4)c3c2F)CC12CCC2 (stereo not drawn) [Compound 94] | ≤ 0.05 µg/mL | ≤ 0.05 µg/mL | 0.39 µg/mL (≈ 1 µM) | 0.1 µg/mL (≈ 0.257 µM) | 0.2 µg/mL (≈ 0.514 µM) | 0.2 µg/mL (≈ 0.514 µM) | 0.1 µg/mL (≈ 0.257 µM) | 0.39 µg/mL (≈ 1 µM) | ≤ 0.05 µg/mL | 0.1 µg/mL (≈ 0.257 µM) | ≤ 0.05 µg/mL | ≤ 0.05 µg/mL
8 | NC1CN(c2c(F)cc3c(=O)c(C(=O)O)cn(C4CC4)c3c2F)CC12CCCC2 (stereo not drawn) [Compound 95, 7-(4-amino-2-azaspiro[4.4]nonan-2-yl)-1-cyclopropyl-6,8-difluoro-4-oxo-1,4-dihydroquinoline-3-carboxylic acid] | ≤ 0.05 µg/mL | ≤ 0.05 µg/mL | 0.2 µg/mL (≈ 0.496 µM) | 0.1 µg/mL (≈ 0.248 µM) | 0.1 µg/mL (≈ 0.248 µM) | 0.2 µg/mL (≈ 0.496 µM) | ≤ 0.05 µg/mL | 0.2 µg/mL (≈ 0.496 µM) | ≤ 0.05 µg/mL | 0.39 µg/mL (≈ 0.967 µM) | ≤ 0.05 µg/mL | 0.1 µg/mL (≈ 0.248 µM)
9 | C[C@H]1COc2c(N3CC(N)C4(CCC4)C3)c(F)cc3c(=O)c(C(=O)O)cn1c23 (stereo partly drawn) [Compound 98, 10-(8-Amino-6-azaspiro[3.4]octan-6-yl)-9-fluoro-2,3-dihydro-3-(S)-methyl-7-oxo-7H-pyrido[1,2,3-de][1,4]-benzoxazine-6-carboxylic acid] | ≤ 0.05 µg/mL | ≤ 0.05 µg/mL | 0.39 µg/mL (≈ 1.01 µM) | 0.1 µg/mL (≈ 0.258 µM) | 0.2 µg/mL (≈ 0.516 µM) | 0.2 µg/mL (≈ 0.516 µM) | 0.2 µg/mL (≈ 0.516 µM) | 0.2 µg/mL (≈ 0.516 µM) | ≤ 0.05 µg/mL | 0.39 µg/mL (≈ 1.01 µM) | ≤ 0.05 µg/mL | ≤ 0.05 µg/mL
10 | O=C(O)c1cn(C2CC2)c2c(F)c(N3CC(CO)C4(CCC4)C3)c(F)cc2c1=O (stereo not drawn) [Compound 108, 1-Cyclopropyl-6,8,difluoro-7-(8-hydroxymethyl-6-azaspiro-[3.4]octan-6-yl)-4-oxo-1,4-dihydroquinoline-3-carboxylic acid] | 0.2 µg/mL (≈ 0.495 µM) | ≤ 0.05 µg/mL | 0.39 µg/mL (≈ 0.964 µM) | 1.56 µg/mL (≈ 3.86 µM) | 1.56 µg/mL (≈ 3.86 µM) | 0.2 µg/mL (≈ 0.495 µM) | 0.78 µg/mL (≈ 1.93 µM) | 0.39 µg/mL (≈ 0.964 µM) | 0.2 µg/mL (≈ 0.495 µM) | 1.56 µg/mL (≈ 3.86 µM) | 0.1 µg/mL (≈ 0.247 µM) | ≤ 0.05 µg/mL
11 | N[C@@H]1CN(c2nc3c(cc2F)c(=O)c(C(=O)O)cn3-c2ccc(F)cc2F)CC12CC2 [Compound 111b, (-)-7-[7-(S)-amino-5-azaspiro[2.3]heptan-5-yl)-6-fluoro-1-(2,4-difluorophenyl)-1,4-dihydro-4-oxo-1,8-naphthyridine-3-carboxylate] | ≤ 0.05 µg/mL | ≤ 0.05 µg/mL | 0.2 µg/mL (≈ 0.465 µM) | 0.1 µg/mL (≈ 0.232 µM) | 0.2 µg/mL (≈ 0.465 µM) | 0.39 µg/mL (≈ 0.906 µM) | 0.2 µg/mL (≈ 0.465 µM) | 0.1 µg/mL (≈ 0.232 µM) | ≤ 0.05 µg/mL | 0.2 µg/mL (≈ 0.465 µM) | ≤ 0.05 µg/mL | 0.1 µg/mL (≈ 0.232 µM)
